Reference: patent US12083084B2, “Method for enhancing energy production and metabolism in cells” (REPLICON HEALTH OY, priority 2013, dated 2024)
Several values for one entry are separate records, joined by “and”; a condition that tells them apart may be missing. Equal values may be shown once.

What was measured:
human hepatocytes = assay: Gene expression from hepatocytes lysates; type: cell-based; settings: N = 5
[1] = 4.5 day acute test, wide blood panel (Example 2.3.1); type: in vivo, human; settings: for increased level of blood triglycerides: 4.5 day test
Description: In earlier in vivo experiments (Example 2.1 and 2.2) the last DGAcs was taken in previous night. In this Example the last dose was double in size (=some 10 mg/kg), and it was taken in the same morning as the collection of blood samples. Higher than “normal” therapeutic dose and short time to blood measurement was chosen in order to see a clearer dose response compared to zero control. On top of very wide blood panel, like in Examples 2.1 and 2.2, also gene expression analyses from peripheral leukocytes (Example 2.3.2 below), and concentration analyses from collected plasma samples (Example 2.3.3) was conducted. Also glucose tolerance test and related insulin measurements (Example 2.3.4 below) was conducted. By comparing results of subject 1 (S1) from Example 2.1 and in Example 2.3.1 (below), it is fairly straightforward to see that this “high dose and immediate response strategy” was efficient, and it produced even very important deviations in some parameters due to different administrations.
In this Example the 4 day experiment in Example 2.1 was extended into 4.5 day experiment by additional DGAcs dose in the morning before blood measurement. Same wide fasting blood panel consisting of 25 different metrics and full blood count was measured for all participants (sample analytics by United Medix Laboratories, Finland).
Two healthy volunteers (S1 and S9) and two (otherwise healthy) volunteers using statin medication (S10 and S11) were chosen for the experiment. The test set up was double blinded. S1 had participated in the earlier 4 day experiment (see Table 3 above and also to a 3 week pilot testing) and served as an important positive control on the efficacy of the DGAcs. Statin group on the other hand was chosen as some kind of a negative control because statins to some extend can possibly counter act the positive effects of the DGAcs and on the other hand also have similar health effects. Statins suppress mevalonate pathway by inhibiting HMG Coa reductase activity and also disturb balancing of cellular NADPH/NADP^+ levels (FIGS. 3b and 4). […] Statin treatment group was not expected to yield positive results but possibly vice versa. For S10 the statin dose was halved two weeks before the test from 20 mg to 10 mg (Simvastatin). For S11 statin treatment was kept at 20 mg per day (also Simvastatin).

peripheral leukocytes = assay: Gene expression from in vivo blood samples (TRAC); design: species or system human; settings: for AOX1 gene expression, Change % / CYP1A2 gene expression, Change % / CYP2B6 gene expression, Change % / CYP2C9 gene expression, Change % / CYP3A4 gene expression, Change % / G6PD gene expression, Change % / GPD2 gene expression, Change % / GRHPR gene expression, Change % / HO-1 gene expression, Change % / MT-CO1 gene expression, Change % / MT-CYB gene expression, Change % / PGC-1a gene expression, Change %: S1 and S9 combined, vs control
Description: In the above 4.5 day experiment samples of peripheral leukocytes were collected from S1 and S9 in fasting condition (0 h), and also 1 hour (1 h) after taking 75 grams of glucose (Glutole, Biofile Pharma, 330 ml) for glucose tolerance test. Additional gene expression measurement was done from a separate 12 hour treatment for S1 and S9. In the 12 h test only two last doses of DGAcs were administered, first dose 12 h earlier than the blood sample, and the last/second dose 2.5 h earlier in the same morning (like in 4.5 day experiment). For the statin group, S10 and S11, only one gene expression measurement was done in two hours after the fasting blood sample. Leukocytes were immediately separated from blood samples, and after separation immediately lysed by stop solution and stored in freezer according to instructions by the service provider.
For S1 and S9 there were altogether 4 measurement points for gene expression, and only 3 repeats for each measurement. Results are presented in Table 6 below; changes of gene expressions compared to the control from peripheral leukocytes are presented. The Gene Expression analyses was conducted using TracTechnology by PlexPress Ltd in Helsinki. The TRAC data presented in Table 6 has been generated according to process instructions with quality tested instruments and reagents. PlexPress Quality Management System is set up according to the ISO 9001 standard. P-values are from t-distribution of a one sided test of deviation from control average, and are presented only when below 10%.

[2] = 4.5 day, 5 mg/kg twice a day, last dose 10 mg/kg, 2.5 hours after last dose, healthy males S1 and S9, fasting blood, vs 0-control
[3] = 12 hour + 0 h test (two doses, fasting)
[4] = 12 hour + 1 h test (1 h after 75 g glucose)
[5] = 4.5 day + 1 h test (1 h after 75 g glucose)

## O.O.O=C([O-])[C@H](O)CO.O=C([O-])[C@H](O)CO.[Ca+2] [DGAcs, D-glyceric acid, calcium salt dehydrate]
Human hepatocytes; donor alpha, 1.4 (μM)
  CYP2B6 gene expression deviation from control: 38%
  PGC-1a gene expression deviation from control: 5%
Human hepatocytes; donor alpha, 14 (μM)
  CYP2B6 gene expression deviation from control: 45%
  PGC-1a gene expression deviation from control: 20%
Human hepatocytes; donor one, 1.4 (μM)
  CYP2B6 gene expression deviation from control: 8%
  HO-1 gene expression deviation from control: 54%
  PGC-1a gene expression deviation from control: 12%
Human hepatocytes; donor one, 14 (μM)
  CYP2B6 gene expression deviation from control: 3%
  HO-1 gene expression deviation from control: 50%
  PGC-1a gene expression deviation from control: 42%
Human hepatocytes; donor three, 1.4 (μM)
  CYP2B6 gene expression deviation from control: 29%
  HO-1 gene expression deviation from control: 83%
  PGC-1a gene expression deviation from control: 45%
Human hepatocytes; donor three, 14 (μM)
  CYP2B6 gene expression deviation from control: 49%
  HO-1 gene expression deviation from control: 21%
  PGC-1a gene expression deviation from control: 1%
[1]; [2]
  HDL, 4.5 day change: 1% and −1%
  S-Afos, 4.5 day change: 8% and 12%
  S-Alb, 4.5 day change: 5% and 10%
  S-Amyl, 4.5 day change: −5% and −3%
  S-Cal, 4.5 day change: 4% and 3%
  S-LDH, 4.5 day change: −4% and −7%
  S-Mg, 4.5 day change: 5% and 0%
  S-Na, 4.5 day change: 1%
  S-Uraat, 4.5 day change: 4% and −1%
  fS-Gluk, 4.5 day change: −2% and 4%
  fS-Krea, 4.5 day change: 3% and 9%
  fS-Transf, 4.5 day change: 5% and 8%
  fS-Trigly, 4.5 day change: −3% and −5%
[1]; S1, 4.5 day test
  blood LDH declined: 4%
  blood urea decline: 7%
  creatine kinase (S-CK) declined: 14%
[1]; S1, 4.5 day test (zero control 1.32)
  AST/ALT (ratio) after treatment: 0.96
[1]; S10, statin group (Simvastatin 10 mg)
  increased level of blood triglycerides: +83.5%
[1]; S11, statin group (Simvastatin 20 mg)
  increased level of blood triglycerides: +25.6%
Peripheral leukocytes; [3]
  AOX1 gene expression, Change %: −6%
  CYP1A2 gene expression, Change %: 100%
  CYP2B6 gene expression, Change %: −14%
  CYP2C9 gene expression, Change %: 8%
  CYP3A4 gene expression, Change %: −17%
  G6PD gene expression, Change %: 3%
  GPD2 gene expression, Change %: 24%
  GRHPR gene expression, Change %: −26%
  HO-1 gene expression, Change %: −31%
  MT-CO1 gene expression, Change %: −10%
  MT-CYB gene expression, Change %: −2%
  PGC-1a gene expression, Change %: −3%
Peripheral leukocytes; [4]
  AOX1 gene expression, Change %: 8%
  CYP2B6 gene expression, Change %: 8%
  CYP2C9 gene expression, Change %: 18%
  CYP3A4 gene expression, Change %: −45%
  G6PD gene expression, Change %: 18%
  GPD2 gene expression, Change %: 23%
  GRHPR gene expression, Change %: 6%
  HO-1 gene expression, Change %: −54%
  MT-CO1 gene expression, Change %: 4%
  MT-CYB gene expression, Change %: 2%
  PGC-1a gene expression, Change %: −21%
Peripheral leukocytes; 4.5 day + 0 h test (fasting)
  CYP1A2 gene expression, Change %: 62%
  CYP2B6 gene expression, Change %: 73%
  CYP2C9 gene expression, Change %: 0%
  CYP3A4 gene expression, Change %: 67%
  G6PD gene expression, Change %: 9%
  GPD2 gene expression, Change %: 31%
  GRHPR gene expression, Change %: 70%
  HO-1 gene expression, Change %: 82%
  MT-CO1 gene expression, Change %: 24%
  MT-CYB gene expression, Change %: 22%
Peripheral leukocytes; [5]
  CYP1A2 gene expression, Change %: 14%
  CYP2B6 gene expression, Change %: 147%
  CYP2C9 gene expression, Change %: 46%
  CYP3A4 gene expression, Change %: 69%
  G6PD gene expression, Change %: −13%
  GPD2 gene expression, Change %: 0%
  GRHPR gene expression, Change %: 100%
  HO-1 gene expression, Change %: 110%
  MT-CO1 gene expression, Change %: 23%
  MT-CYB gene expression, Change %: 21%
  PGC-1a gene expression, Change %: 30%
Peripheral leukocytes; S10, statin group
  CYP3A4 gene expression vs control: statistically significantly up regulated
Peripheral leukocytes; S10, statin group (halved dose of Simvastatin), 4.5 day
  increase in HO-1 gene expression: 160%
Peripheral leukocytes; S10, statin group, 4.5 day panel
  AOX1 gene expression increased by: 56%
